Measurements taken from US8609836B2, “4-aryl-2-anilino-pyrimidines” (Janssen Pharmaceutica NV, priority 2008, dated 2013).

How the values were obtained:
[1] = biological target: PLK4 (h) (Homo sapiens, UniProt O00444); assay: PLK-4 human kinase inhibition, scintillation proximity assay (SPA); format: biochemical; conditions: read-out: PLK4 pIC50 (converted)
[2] = biological target: AuroraB (h) (Homo sapiens, UniProt Q96GD4); assay: Aurora-B human kinase inhibition, SPA; format: biochemical; conditions: read-out: AuroraB pIC50 (converted)
Sequence of AuroraB (h) (Q96GD4 whole entry): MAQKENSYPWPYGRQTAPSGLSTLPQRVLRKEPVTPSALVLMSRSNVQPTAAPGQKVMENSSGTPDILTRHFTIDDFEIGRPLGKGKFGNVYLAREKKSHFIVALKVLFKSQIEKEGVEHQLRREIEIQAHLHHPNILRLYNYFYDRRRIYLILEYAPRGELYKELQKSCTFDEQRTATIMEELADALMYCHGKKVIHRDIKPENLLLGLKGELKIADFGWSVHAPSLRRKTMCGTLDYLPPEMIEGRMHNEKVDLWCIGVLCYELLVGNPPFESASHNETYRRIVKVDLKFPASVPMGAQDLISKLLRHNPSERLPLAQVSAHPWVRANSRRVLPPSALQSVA
How it was run: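 SPA with biotinylated peptide (3 μM) in 60 mM Hepes pH 7.5, Mg/Mn 3 mM each, 0.5 μM ATP plus [γ-33P]ATP, AuroraB at 0.5 μg/ml. The reaction runs 60 min at room temperature and is stopped with EDTA and streptavidin PVT beads. 33P-substrate is read by scintillation imaging.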

[3] = biological target: GSK3β (h) (Homo sapiens, UniProt P49841); assay: GSK-3β human kinase inhibition, SPA; format: biochemical; conditions: read-out: GSK3b pIC50 (converted)
Sequence of GSK3β (h) (P49841 whole entry): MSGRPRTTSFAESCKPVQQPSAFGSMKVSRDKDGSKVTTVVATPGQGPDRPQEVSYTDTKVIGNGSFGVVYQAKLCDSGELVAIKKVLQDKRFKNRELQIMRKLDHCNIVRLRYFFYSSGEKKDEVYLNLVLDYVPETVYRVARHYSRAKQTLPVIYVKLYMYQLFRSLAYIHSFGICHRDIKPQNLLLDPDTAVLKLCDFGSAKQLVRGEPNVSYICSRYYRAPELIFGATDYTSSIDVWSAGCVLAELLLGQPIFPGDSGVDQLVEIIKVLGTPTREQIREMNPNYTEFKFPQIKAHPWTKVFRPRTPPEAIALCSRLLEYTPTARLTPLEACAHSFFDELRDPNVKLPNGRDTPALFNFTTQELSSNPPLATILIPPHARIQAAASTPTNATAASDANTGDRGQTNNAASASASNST
How it was run: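 Scintillation proximity assay: GSK3β (1 μg/ml) with 1 μM biotinylated peptide, 1 μM ATP plus [γ-33P]ATP in Tris pH 7.4, MgCl2, DTT. 60 min at room temperature, stopped with EDTA and streptavidin PVT beads; phosphorylation read by Leadseeker imaging.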

[4] = biological target: CDK1/CyclinB (h) (Homo sapiens, UniProt P06493); assay: CDK1/CyclinB human kinase inhibition, Invitrogen's FRET assay (Z'lyte); format: biochemical; conditions: read-out: CDK1 pIC50 (converted)
Sequence of CDK1/CyclinB (h) (P06493 whole entry): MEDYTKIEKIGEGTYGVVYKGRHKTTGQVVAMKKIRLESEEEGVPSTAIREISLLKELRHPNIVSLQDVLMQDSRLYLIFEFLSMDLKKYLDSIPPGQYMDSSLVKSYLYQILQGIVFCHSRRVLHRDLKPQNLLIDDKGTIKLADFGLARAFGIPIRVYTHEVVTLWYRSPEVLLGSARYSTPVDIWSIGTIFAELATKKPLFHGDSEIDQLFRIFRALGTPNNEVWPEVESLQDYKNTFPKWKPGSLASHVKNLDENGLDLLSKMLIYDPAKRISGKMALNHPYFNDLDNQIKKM
Sequence of CDK1/CyclinB (h) (P14635 whole entry partner): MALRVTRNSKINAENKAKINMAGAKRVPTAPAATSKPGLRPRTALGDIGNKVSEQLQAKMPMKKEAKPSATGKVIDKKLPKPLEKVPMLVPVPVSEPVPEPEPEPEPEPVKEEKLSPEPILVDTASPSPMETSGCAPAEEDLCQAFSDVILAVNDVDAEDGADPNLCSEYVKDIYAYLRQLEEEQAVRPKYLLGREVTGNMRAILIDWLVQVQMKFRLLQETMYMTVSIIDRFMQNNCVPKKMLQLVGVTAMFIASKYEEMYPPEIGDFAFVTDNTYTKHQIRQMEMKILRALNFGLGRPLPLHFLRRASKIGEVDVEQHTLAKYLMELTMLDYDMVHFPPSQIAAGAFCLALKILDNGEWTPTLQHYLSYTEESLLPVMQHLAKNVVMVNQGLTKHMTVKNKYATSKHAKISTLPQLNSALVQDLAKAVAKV
How it was run: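 Z'lyte FRET assay: human CDK1/CyclinB (0.2 μg/ml) with 2 μM Ser/Thr peptide 12 and 10 μM ATP in 50 mM Hepes pH 7.5, MgCl2, EGTA, Brij-35, 60 min at room temperature. Protease development 60 min, then emission ratio 460/538 nm read with excitation at 390 nm.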

[5] = biological target: CDK4/CyclinD1 (h) (Homo sapiens, UniProt P11802); assay: CDK4/CyclinD1 human kinase inhibition, SPA with GST-pRb substrate; format: biochemical; conditions: read-out: CDK4 pIC50 (converted)
Sequence of CDK4/CyclinD1 (h) (P11802 whole entry): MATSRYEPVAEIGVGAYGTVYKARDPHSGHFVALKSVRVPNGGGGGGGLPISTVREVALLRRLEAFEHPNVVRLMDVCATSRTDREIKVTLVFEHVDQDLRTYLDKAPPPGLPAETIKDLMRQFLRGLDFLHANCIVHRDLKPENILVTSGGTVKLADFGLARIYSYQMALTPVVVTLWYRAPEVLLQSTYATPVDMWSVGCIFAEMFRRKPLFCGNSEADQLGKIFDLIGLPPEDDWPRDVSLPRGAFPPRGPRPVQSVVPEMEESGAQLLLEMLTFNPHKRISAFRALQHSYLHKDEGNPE
Sequence of CDK4/CyclinD1 (h) (P24385 whole entry partner): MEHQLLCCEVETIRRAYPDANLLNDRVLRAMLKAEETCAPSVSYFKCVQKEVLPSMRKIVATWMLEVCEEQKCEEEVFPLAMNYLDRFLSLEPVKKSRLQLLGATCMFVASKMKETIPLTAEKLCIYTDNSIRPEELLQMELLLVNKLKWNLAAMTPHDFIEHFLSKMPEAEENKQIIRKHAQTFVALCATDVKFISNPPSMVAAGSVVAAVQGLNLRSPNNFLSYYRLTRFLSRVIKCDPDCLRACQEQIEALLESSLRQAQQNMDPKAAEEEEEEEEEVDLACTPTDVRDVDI
How it was run: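 Human CDK4/CyclinD1 (2.5 μg/ml) was incubated with 40 μg/ml GST-pRb and 2 nM [γ-33P]ATP in 50 mM Hepes pH 7.5, 8 mM NaF, 20 mM MgCl2, 1 mM DTT for 60 min at room temperature. EDTA stop with glutathione SPA beads; phosphorylation read by scintillation counting.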

[6] = biological target: PLK1 T210D (h) (Homo sapiens, UniProt P53350, T210D); assay: PLK1 human kinase inhibition, SPA; format: biochemical; conditions: read-out: PLK1 pIC50 (converted)
Sequence of PLK1 T210D (h) (P53350 whole entry T210D): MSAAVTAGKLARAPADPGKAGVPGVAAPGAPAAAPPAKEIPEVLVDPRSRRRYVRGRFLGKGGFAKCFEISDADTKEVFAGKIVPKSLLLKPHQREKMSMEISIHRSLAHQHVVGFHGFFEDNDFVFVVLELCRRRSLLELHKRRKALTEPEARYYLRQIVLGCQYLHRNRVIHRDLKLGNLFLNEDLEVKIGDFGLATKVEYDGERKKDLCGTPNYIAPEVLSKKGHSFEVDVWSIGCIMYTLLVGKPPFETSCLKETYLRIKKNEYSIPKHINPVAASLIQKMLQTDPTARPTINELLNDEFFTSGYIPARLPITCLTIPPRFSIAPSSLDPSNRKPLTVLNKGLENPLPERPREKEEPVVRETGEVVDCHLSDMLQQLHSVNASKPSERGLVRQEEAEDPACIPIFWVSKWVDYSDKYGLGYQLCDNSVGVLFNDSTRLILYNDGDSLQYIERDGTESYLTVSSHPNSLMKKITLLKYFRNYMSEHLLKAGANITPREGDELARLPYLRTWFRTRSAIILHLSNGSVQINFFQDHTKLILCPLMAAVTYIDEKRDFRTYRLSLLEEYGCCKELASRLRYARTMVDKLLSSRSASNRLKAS
How it was run: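 Radiometric SPA with PLK1 T210D (0.125 ng/ml) in 50 mM Hepes pH 8.0, 2 mM MnCl2, 1 mM DTT, 2 μM biotinylated peptide, 0.1 μM ATP plus 2 nM [γ-33P]ATP. 40 min at room temperature, EDTA stop. Phosphorylated substrate captured on streptavidin PVT beads, scintillation imaged.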

[7] = test system: HCT-116; assay: Cellular proliferation assay (Alamar blue), HCT-116; format: cell-based; conditions: Homo sapiens, 10% FCS, 72 hours with compound, Alamar blue 4 h
How it was run: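 24 h seeding without compound, 10% FCS, 37° C/5% CO2; 72 h compound; Alamar blue (resazurin 9 μg/ml, ferro-/ferricyanide 90 μM) 4 h HCT-116, 6 h U87-MG, 24 h A2780/MDA-MB-231; fluorescence 544/590 nm vs control cells.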

[8] = test system: H1299; assay: Cellular proliferation assay (Alamar blue), H1299; format: cell-based; conditions: Homo sapiens, NCI-H1299; 10% FCS; 72 hours with compound; Alamar blue 4 h
How it was run: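 This proliferation assay on NCI-H1299 cells used an initial 24-hour compound-free incubation after seeding, followed by 72 hours of compound treatment with 10% FCS serum at 37° C. and 5% (v/v) CO2. Viable cells were quantified by a 4 h Alamar blue incubation and fluorescent plate reading at 544 nm/590 nm, and effects were expressed relative to control cells.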

Sequence of PLK4 (h) (O00444 whole entry): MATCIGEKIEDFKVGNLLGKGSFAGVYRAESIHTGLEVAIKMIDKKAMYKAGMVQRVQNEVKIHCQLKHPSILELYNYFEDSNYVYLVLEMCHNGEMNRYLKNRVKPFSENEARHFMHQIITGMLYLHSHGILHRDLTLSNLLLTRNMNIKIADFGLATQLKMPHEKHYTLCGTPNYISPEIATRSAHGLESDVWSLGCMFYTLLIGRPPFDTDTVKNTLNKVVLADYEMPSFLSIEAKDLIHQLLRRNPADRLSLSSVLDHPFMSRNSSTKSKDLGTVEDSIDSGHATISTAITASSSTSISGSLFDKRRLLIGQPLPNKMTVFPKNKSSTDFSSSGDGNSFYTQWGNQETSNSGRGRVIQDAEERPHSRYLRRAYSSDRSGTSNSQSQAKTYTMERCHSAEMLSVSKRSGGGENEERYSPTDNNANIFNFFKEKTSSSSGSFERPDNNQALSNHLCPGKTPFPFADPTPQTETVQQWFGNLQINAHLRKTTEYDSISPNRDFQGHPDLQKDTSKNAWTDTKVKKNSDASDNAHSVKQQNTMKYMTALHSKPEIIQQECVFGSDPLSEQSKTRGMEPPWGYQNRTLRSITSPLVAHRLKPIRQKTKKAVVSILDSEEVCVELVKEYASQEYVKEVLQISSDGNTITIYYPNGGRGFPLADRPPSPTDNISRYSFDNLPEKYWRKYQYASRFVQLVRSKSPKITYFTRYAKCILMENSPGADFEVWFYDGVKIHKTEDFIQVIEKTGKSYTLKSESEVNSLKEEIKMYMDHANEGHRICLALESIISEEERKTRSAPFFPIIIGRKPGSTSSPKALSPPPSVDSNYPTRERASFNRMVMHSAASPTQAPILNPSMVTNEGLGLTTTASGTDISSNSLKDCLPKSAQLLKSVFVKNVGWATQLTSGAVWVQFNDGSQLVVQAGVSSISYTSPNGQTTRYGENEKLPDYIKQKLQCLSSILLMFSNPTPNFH

| IC50 [1] [µM] | IC50 [2] [µM] | IC50 [3] [µM] | IC50 [4] [µM] | IC50 [5] [µM] | IC50 [6] [µM] | IC50 [7] [µM] | IC50 [8] [µM] | Compound |
| --- | --- | --- | --- | --- | --- | --- | --- | --- |
| 2.04 | 6.61 | 8.32 | > 10 | > 10 | > 10 | > 10 | > 10 | COc1cc2cc(c1)Nc1nccc(n1)-c1ccc(OC)c(c1)CN(C)CCNC(=O)[C@@H]1CCCN1C2 [Compound 162] |
| 2.45 | > 10 | > 10 | > 10 | > 10 | > 10 | 4.17 | > 10 | COc1ccc2cc1CN(C)CCNC(=O)[C@@H]1CCCN1Cc1cc(NCCc3ccccc3)cc(c1)Nc1nccc-2n1 [Compound 163] |
| 2.82 | > 10 | > 10 | > 10 | > 10 | > 10 | 5.62 | > 10 | COc1ccc2cc1CN(C)CCNC(=O)[C@@H]1CCCN1Cc1cc(cc(NC(C)C)c1)Nc1nccc-2n1 [Compound 165] |
| 3.55 | > 10 | > 10 | > 10 | > 10 | > 10 | 2.24 | > 10 | COc1ccc2cc1CN(C)CCCNC(=O)[C@@H]1CCCN1Cc1cc(NCCc3ccccc3)cc(c1)Nc1nccc-2n1 [Compound 167] |
| 3.55 | 2.57 | 1.45 | 8.13 | 2.14 | > 10 | > 10 | > 10 | CN1CCN(C)c2ccc(cn2)-c2ccnc(n2)Nc2cc(c3c(c2)OCO3)CN2CCC[C@H]2C1=O [Compound 168] |
| 5.01 | > 10 | > 10 | > 10 | > 10 | > 10 | 6.61 | > 10 | COc1cc2cc(c1)Nc1nccc(n1)-c1ccc(OC)c(c1)CN(C)CCCNC(=O)[C@@H]1CCCN1C2 [Compound 171] |
| > 10 | > 10 | > 10 | > 10 | > 10 | > 10 | 4.9 | > 10 | COc1ccc2cc1CN(C)CCNC(=O)[C@@H]1CCCN1Cc1cc(C#N)cc(c1)Nc1nccc-2n1 [Compound 181] |
| 0.692 | > 10 | 0.661 | 7.59 | 6.03 | > 10 | > 10 | > 10 | C[C@@H]1NCc2cc(ccc2N2CCOCC2)Nc2nccc(n2)-c2cccc(c2)CNC1=O [Compound 182] |
| > 10 | > 10 | 3.24 | > 10 | 4.37 | > 10 | > 10 | > 10 | O=C1CN2CCN(CC2)Cc2ccc(cc2)Nc2nccc(n2)-c2cccc(c2)CN1 [Compound 193] |
| 1.12 | > 10 | 6.03 | > 10 | 1.7 | > 10 | > 10 | > 10 | O=C1CN2CCN(CC2)Cc2cc(ccc2N2CCOCC2)Nc2nccc(n2)-c2ccc(cc2)CN1 [Compound 194] |
| > 10 | > 10 | 1.07 | > 10 | 6.17 | > 10 | > 10 | > 10 | O=C1CN2CCN(CC2)Cc2cccc(c2)Nc2nccc(n2)-c2cccc(c2)CN1 [Compound 196] |

More lines, now with the values behind:

| Compound | IC50 [1] [µM] | IC50 [2] [µM] | IC50 [3] [µM] | IC50 [4] [µM] | IC50 [5] [µM] | IC50 [6] [µM] | IC50 [7] [µM] | IC50 [8] [µM] |
| --- | --- | --- | --- | --- | --- | --- | --- | --- |
| CN1CCNC(=O)[C@@H]2CCCN2Cc2cccc(c2)Nc2nccc(n2)-c2ccc(cc2)C1 [Compound 160] | 1.55 | > 10 | 5.5 | > 10 | > 10 | > 10 | > 10 | > 10 |
| C[C@@H]1NCc2cccc(c2)Nc2nccc(n2)-c2cccc(c2)CNC1=O [Compound 184] | 0.776 | > 10 | 0.102 | 0.398 | 1.17 | > 10 | 5.37 | 9.77 |
| O=C1NCc2cccc(c2)-c2ccnc(n2)Nc2cccc(c2)CN[C@H]1Cc1ccccc1 [Compound 185] | 0.794 | > 10 | 0.0275 | 4.79 | > 10 | > 10 | 6.92 | 2.63 |
| C[C@@H]1NCc2ccc(Cl)c(c2)Nc2nccc(n2)-c2cccc(c2)CNC1=O [Compound 186] | 1.02 | > 10 | > 10 | > 10 | > 10 | > 10 | > 10 | > 10 |
| O=C1NCc2cccc(c2)-c2ccnc(n2)Nc2cccc(c2)CN[C@H]1CO [Compound 187] | 1.07 | > 10 | 0.0537 | 0.646 | 1.2 | > 10 | 1.35 | 6.17 |
| O=C1NCc2cccc(c2)-c2ccnc(n2)Nc2cc(ccc2Cl)CN[C@H]1CO [Compound 188] | 2.09 | > 10 | 6.61 | 9.12 | > 10 | > 10 | > 10 | > 10 |
| O=C1NCc2cccc(c2)-c2ccnc(n2)Nc2cc(ccc2Cl)CN[C@H]1Cc1ccccc1 [Compound 189] | > 10 | > 10 | 6.92 | 5.62 | 5.75 | > 10 | > 10 | > 10 |
| C[C@@H]1NCc2ccc(cc2)Nc2nccc(n2)-c2cccc(c2)CNC1=O [Compound 190] | > 10 | > 10 | 1.29 | 6.46 | > 10 | > 10 | > 10 | > 10 |
| O=C1NCc2cccc(c2)-c2ccnc(n2)Nc2ccc(cc2)CN[C@H]1Cc1ccccc1 [Compound 192] | > 10 | > 10 | > 10 | > 10 | > 10 | > 10 | > 10 | > 10 |
| O=C1CN2CCN(CC2)Cc2ccc(Cl)c(c2)Nc2nccc(n2)-c2cccc(c2)CN1 [Compound 195] | > 10 | > 10 | > 10 | > 10 | > 10 | > 10 | > 10 | > 10 |
